Where two headings read alike, the source gives them in different places.
How the values were obtained:
[1] = dog, in vivo, po, 10 mg/kg
Protocol: The study was designed to compare the PK profiles of the following four forms of Compound 1 administered as single oral capsules in fasted state. […] There was a washout period of 4 days between dosing. The blood samples were collected from each animal at predetermined times on the study Days 1, 4, 8 and 11. The plasma was analyzed for Compound 1 by a validated HPLC-MS/MS assay.
Descriptive PK parameters were determined by standard model independent methods (Gibaldi and Perrier, 1982) based on the individual plasma concentration-time data. Plasma concentrations were rounded to 3 significant figures. Plasma samples with concentrations below the quantifiable assay limit (BQL<2.00 ng/mL) were assigned values of zero for mean calculations. For PK calculations, BQL was set to zero from the pre-dose time up to the time of the first quantifiable concentration and thereafter was set as missing. Nominal time points were used for all calculations. • Cmax is the observed maximum plasma concentration after dosing. • Tmax is the time to reach Cmax. • T1/2 is apparent half-life calculated by ln(2)/λ where λ is the rate constant fix the log-linear portion of the terminal phase. A minimum of three values in the post-distribution phase of the plasma concentration-time curve is required for calculation of X. • AUC(0-T) is the area under the plasma concentration-time curve from time zero to the time of the last measurable plasma concentration determined using the linear trapezoidal rule. • AUC(0-inf) is the area under the plasma concentration-time curve from time zero to infinity. It is calculated by summing AUC(0-T) and the extrapolated area from the T to infinity.
PK analyses were performed by noncompartmental analysis using model 200 in WinNonlin Professional 6.1 (Pharsight Corp., Mountain View, Calif.).

[2] = Compound 2 solution stability, one week (HPLC % purity); assay type: physicochemical; settings: for Δ% Purity at 5° C. / Δ% Purity at 25° C./60% RH: 1 week; for Initial % Purity: t=0
Protocol: The above analysis was taken as t=0 and the samples were then divided in two and one of each sample was stored at 5° C. for one week and the other of each sample was stored at 25° C./60% relative humidity (RH) for one week.
After one week, the samples were allowed to equilibrate to room temperature and if required (H2O and pH 7-9 samples stored at 5° C.) refiltered to remove precipitate.
The samples were reanalyzed by HPLC.

[3] = Compound 2 solubility in solvents and buffers (saturated, 24 h shaking, HPLC); assay type: physicochemical; settings: for solubility at 24 h: thermodynamic from solid
Protocol: Solubility of Compound 2 in a solvent, selected from water, methanol, acetonitrile (ACN) and iso-propanol and in 50 mM phosphate buffer at pH 1, 2, 7 and 8, 50 mM citrate buffer at pH 3, 4, 5 and 6 and in 50 mM borate buffer at pH 9 was assessed. Compound 2 was added to 10 mL of the solvent or buffer until the solution was visibly saturated and remained cloudy upon vortex mixing. Each sample was placed on a reciprocal shaker at room temperature for 24 hours then filtered through a 0.45 μm nylon filter to remove excess suspended compound. The samples were then diluted where required in accordance with Table 24, and analyzed by HPLC. The results were compared with a standard curve of known concentrations in ACN.

Compound: COc1ccc2c(c1OCc1ccccc1)C[C@@H](C(=O)[O-])N(C(=O)C(c1ccccc1)c1ccccc1)C2.[Na+] [Compound 2, sodium salt of (S)-2-(diphenylacetyl)-1,2,3,4-tetrahydro-6-methoxy-5-(phenylmethoxy)-3-isoquinoline carboxylic acid]
- Plasma concentration of Compound 1, 0.25 h [1]: BQL
- Plasma concentration of Compound 1, 0.5 h [1]: BQL
- Plasma concentration of Compound 1, 24 h [1]: BQL
- Plasma concentration of Compound 1, Predose [1]: BQL
- Plasma concentration of Compound 1, Predose ([1]; male, beagle): 0.00 ng/mL
- t = 1 week % Purity at 5° C. ([2]; pH 6 buffer solution): 87.02%
- t = 1 week % Purity at 25° C./60% RH ([2]; pH 6 buffer solution): 88.98%
- Δ% Purity at 5° C. ([2]; pH 6 buffer solution): −1.35%
- Δ% Purity at 25° C./60% RH ([2]; pH 6 buffer solution): +0.61%
- Initial % Purity ([2]; pH 6 buffer solution): 88.37%
- t = 1 week % Purity at 5° C. ([2]; pH 7 buffer solution): 74.27%
- t = 1 week % Purity at 25° C./60% RH ([2]; pH 7 buffer solution): 76.52%
- Δ% Purity at 5° C. ([2]; pH 7 buffer solution): −1.85%
- Δ% Purity at 25° C./60% RH ([2]; pH 7 buffer solution): +0.40%
- Initial % Purity ([2]; pH 7 buffer solution): 76.12%
- t = 1 week % Purity at 5° C. ([2]; pH 8 buffer solution): 81.45%
- t = 1 week % Purity at 25° C./60% RH ([2]; pH 8 buffer solution): 86.70%
- Δ% Purity at 5° C. ([2]; pH 8 buffer solution): −4.09%
- Δ% Purity at 25° C./60% RH ([2]; pH 8 buffer solution): +1.16%
- Initial % Purity ([2]; pH 8 buffer solution): 85.54%
- t = 1 week % Purity at 5° C. ([2]; pH 9 buffer solution): 89.17%
- t = 1 week % Purity at 25° C./60% RH ([2]; pH 9 buffer solution): 91.60%
- Δ% Purity at 5° C. ([2]; pH 9 buffer solution): −2.07%
- Δ% Purity at 25° C./60% RH ([2]; pH 9 buffer solution): +0.36%
- Initial % Purity ([2]; pH 9 buffer solution): 91.24%
- t = 1 week % Purity at 5° C. ([2]; solution in ACN): 97.50%
- t = 1 week % Purity at 25° C./60% RH ([2]; solution in ACN): 97.46%
- Δ% Purity at 5° C. ([2]; solution in ACN): 0.00%
- Δ% Purity at 25° C./60% RH ([2]; solution in ACN): −0.04%
- Initial % Purity ([2]; solution in ACN): 97.50%
- t = 1 week % Purity at 5° C. ([2]; solution in H2O): 94.66%
- t = 1 week % Purity at 25° C./60% RH ([2]; solution in H2O): 95.67%
- Δ% Purity at 5° C. ([2]; solution in H2O): −0.92%
- Δ% Purity at 25° C./60% RH ([2]; solution in H2O): +0.09%
- Initial % Purity ([2]; solution in H2O): 95.58%
- t = 1 week % Purity at 5° C. ([2]; solution in IPA): 89.59%
- t = 1 week % Purity at 25° C./60% RH ([2]; solution in IPA): 90.51%
- Δ% Purity at 5° C. ([2]; solution in IPA): +0.31%
- Δ% Purity at 25° C./60% RH ([2]; solution in IPA): +1.23%
- Initial % Purity ([2]; solution in IPA): 89.28%
- t = 1 week % Purity at 5° C. ([2]; solution in MeOH): 97.52%
- t = 1 week % Purity at 25° C./60% RH ([2]; solution in MeOH): 97.39%
- Δ% Purity at 5° C. ([2]; solution in MeOH): +0.13%
- Δ% Purity at 25° C./60% RH ([2]; solution in MeOH): 0.00%
- Initial % Purity ([2]; solution in MeOH): 97.39%
- solubility at 24 h ([3]; 50 mM borate buffer, aqueous buffer, pH 9 buffer (borate, 50 mM)): 5300 µg/mL
- solubility at 24 h ([3]; 50 mM citrate buffer, aqueous buffer, pH 4 buffer (citrate, 50 mM)): < 1 µg/mL
- solubility at 24 h ([3]; 50 mM citrate buffer, aqueous buffer, pH 5 buffer (citrate, 50 mM)): 33 µg/mL
- solubility at 24 h ([3]; 50 mM citrate buffer, aqueous buffer, pH 6 buffer (citrate, 50 mM)): 900 µg/mL
- solubility at 24 h ([3]; 50 mM phosphate buffer, aqueous buffer, pH 1 buffer (phosphate, 50 mM), room temperature 24 h): < 1 µg/mL
- solubility at 24 h ([3]; 50 mM phosphate buffer, aqueous buffer, pH 2 buffer (phosphate, 50 mM)): < 1 µg/mL
- solubility at 24 h ([3]; 50 mM phosphate buffer, aqueous buffer, pH 7 buffer (phosphate, 50 mM)): 1700 µg/mL
- solubility at 24 h ([3]; 50 mM phosphate buffer, aqueous buffer, pH 8 buffer (phosphate, 50 mM)): 1600 µg/mL
- Solubility ([3]; Methanol): >50000 µg/mL
- solubility at 24 h ([3]; acetonitrile, organic solvent or mixture): 12000 µg/mL
- solubility at 24 h ([3]; iso-propanol, organic solvent or mixture, IPA): 700 µg/mL
- solubility at 24 h ([3]; methanol, organic solvent or mixture): > 50000 µg/mL
- solubility at 24 h ([3]; water): 14000 µg/mL

— patent US8614227B2, “Salt and solvates of a tetrahydroisoquinoline derivative” (Spinifex Pharmaceuticals Pty Ltd, priority 2010, dated 2013)
